Reference: patent US10233177B2, “TRPV1 vanilloid receptor antagonists with a bicyclic portion” (Serentrix LLC, priority 2010, dated 2019)
Read-outs that look alike come from different tables or passages of the source.

What was measured:
[1] = biological target: TRPV1 (Rattus norvegicus (Rat), UniProt O35433); experiment: Ca2+ fluorescence measurements in cultured rat dorsal root ganglia neurons (capsaicin-induced calcium uptake); type: cell-based; settings: rat DRG neurons; for inhibition at 0.3 µM: DRG neuron
[2] = system: CFA-induced thermal hyperalgesia; experiment: CFA-induced thermal hyperalgesia in rats (Hargreaves' test); type: in vivo; settings: rat, 30 μmol/kg oral; read-out: reversal of CFA-induced thermal hyperalgesia (maximal reversal activity / % of reversion)
Excerpt: CFA-Induced Thermal Hyperalgesia in Rats
This method was used for the determination of acute nociceptive thermal threshold and combines a chemical stimulus and heat for measuring pain sensitivity. Male SD rats (Charles River, Italy) weighing 100 to 250 gr. were used. Anti-hyperalgesic effects were investigated by using the Hargreaves' test. Complete Freund's Adjuvant (CFA; Sigma, USA) was used to induce thermal hyperalgesia. CFA contains killed Mycobacterium tuberculosis and is designed to provide continuous release of antigens necessary for stimulating a strong, persistent immune response. This effect causes the reduction of the hind paw withdrawal response latency induced by heat during the Hargreaves' test. Thermal stimulation was performed 30, 60, 120 and 180 (240 min only if needed) minutes after the oral administration of the antagonists. During the CFA-induced thermal hyperalgesia experiments two different solubilization protocols were used: when items presented an amino group, a pH=2 aqueous solution of HCl and 2.5% Tween80 was used; otherwise molecules were suspended in 0.5% Methocel and 2.5% Tween80. Compounds were orally administrated (30 μmol/kg/10 ml) to rats 24 hours after the CFA treatment. CFA was injected into the plantar surface of a rat's hind paw at a fixed dose of 50 μl by the use of a micro syringe.

[3] = system: CFA-induced tactile allodynia; experiment: CFA-induced tactile allodynia in rats (von Frey filaments); type: in vivo; settings: rat, 30 μmol/kg oral
Description: CFA-Induced Tactile Allodynia in Rats
Male SD rats (Charles River, Italy) weighing 100 to 250 g were put into a clean plastic cage on an elevated glass plate for 30 min before the test. This lets the animals accommodate to their new environment before testing. Complete Freund's adjuvant (CFA, 50 μl) was injected into the plantar surface of the right hind paw. Tactile stimulation was performed with von Frey filaments (from 0.07 to 26 g). All antagonists were orally administered 22 hours after to the CFA administration. Von Frey filaments were applied 30, 60, 120, 180, 240, 300 and 360 min after compound administrations. Median 50% (EG50) threshold of von Frey filaments was calculated by using the up-down method as previously described. All tested compounds were suspended in 0.5% Methocel and 2.5% Tween80 and orally administrated (30 μmol/kg/10 ml) to rats by gavage 24 hours after the CFA treatment. CFA was injected into the plantar surface of a rat's hind paw at a fixed dose of 50 μl by the use of a micro syringe.

[4] = system: CCI-induced mechanical hyperalgesia; experiment: CCI-induced mechanical hyperalgesia (Randall-Selitto paw pressure); type: in vivo; settings: rat CCI, 30 μmol/kg oral
Description: CCI-Induced Mechanical Hyperalgesia
Male SD rats (Charles River, Italy) weighing 250 g were anaesthetized with sodium pentobarbital (60 mg/kg, intraperitoneal (i.p.), 0.1 ml/10 g) and, under a dissecting microscope, the right common sciatic nerve was exposed at the level of the mid thigh and, proximal to the trifurcation of the nerve; four ligatures (4/0 chromic silk, Ethicon) were loosely tied around it, at about 0.5 mm spacing, until they elicited a brief twitch in the respective hind, taking care to preserve epineural circulation. Sham-operated animals (sciatic exposure without ligation) were used as controls. 14 days after the surgery, mechanical hyperalgesia was assessed using an analgesimeter (Ugo Basile, Italy, Randall-Selitto analgesic apparatus). This device generated a mechanical force on the affected paw and the nociceptive threshold was defined as the force (in g) at which the rat withdraws the paw (with a cut-off of 450 g). Two baseline measurement values were obtained 75 and 45 min before the actual test. After the second baseline measurement, animals were randomly allocated to the different treatment groups. Paw pressure test was performed 0, 75, 120, 165, 210 and 300 min after the oral administration of the compounds. All tested compounds were orally administrated (30 μmol/kg/10 ml) to rats by gavage.

[5] = Rectal temperature measurements in rats; type: in vivo; settings: rat, 10 μmol/Kg intraperitoneal
Description: Rectal Temperature Measurements in Rats
Body temperature was measured by a digital thermometer inserted at a depth of approximately 3 cm into the rectum of each animal (male SD rats, Charles River, Italy, 100 to 250 g). A pre-dose value of body temperature was measured prior to the administration of the test substance or vehicles. Animals were distributed among groups by the manual method to achieve the almost same mean values of body temperature of the groups based on the pre-dose value. All compounds were dissolved in 6% DMSO/6% Tween80 and then intraperitoneally (10 μmol/Kg/5 ml) administrated to rats.

[6] = Table 1, formula IA-C, 300 nM against calcium uptake induced by 30 nM capsaicin, read-out: % inhibition at 300 nM
[7] = 300 nM, read-out: abolition of capsaicin response at 300 nM
[8] = capsaicin-induced calcium uptake, read-out: inhibition of the calcium uptake
[9] = Table 1, against capsaicin-evoked [Ca2+]i mobilization, read-out: IC50
[10] = read-out: IC50 against capsaicin-evoked [Ca2+]i mobilization

Chain of TRPV1 (O35433 whole entry): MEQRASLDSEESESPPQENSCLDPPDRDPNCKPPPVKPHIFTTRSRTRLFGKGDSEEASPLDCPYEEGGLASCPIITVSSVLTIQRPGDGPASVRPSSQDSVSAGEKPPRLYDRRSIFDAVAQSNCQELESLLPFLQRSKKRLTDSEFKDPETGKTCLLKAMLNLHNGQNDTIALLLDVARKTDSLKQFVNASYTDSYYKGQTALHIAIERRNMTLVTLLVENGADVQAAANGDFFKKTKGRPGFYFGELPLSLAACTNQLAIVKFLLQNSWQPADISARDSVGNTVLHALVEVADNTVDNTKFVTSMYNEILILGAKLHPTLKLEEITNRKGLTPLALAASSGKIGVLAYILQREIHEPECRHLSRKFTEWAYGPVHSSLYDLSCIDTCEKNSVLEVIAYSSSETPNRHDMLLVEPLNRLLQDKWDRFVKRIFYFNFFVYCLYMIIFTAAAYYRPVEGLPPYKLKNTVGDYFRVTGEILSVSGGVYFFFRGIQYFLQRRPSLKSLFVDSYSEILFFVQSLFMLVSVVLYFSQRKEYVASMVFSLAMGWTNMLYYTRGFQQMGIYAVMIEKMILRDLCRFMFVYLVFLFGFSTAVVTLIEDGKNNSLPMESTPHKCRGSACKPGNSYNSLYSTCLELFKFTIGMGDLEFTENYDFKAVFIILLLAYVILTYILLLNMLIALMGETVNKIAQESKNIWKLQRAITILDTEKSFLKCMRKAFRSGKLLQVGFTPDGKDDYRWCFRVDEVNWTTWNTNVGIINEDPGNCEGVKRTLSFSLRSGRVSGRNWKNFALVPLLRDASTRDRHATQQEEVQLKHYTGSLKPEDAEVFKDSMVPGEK

Row | Structure (SMILES) | inhibition at 0.3 µM [1, 6] [%] | inhibition in vivo at 30 µmol/kg [2] [%] | reversal of CFA-induced tactile allodynia [3] [%] | anti-hyperalgesic activity (in words) [4] | reversal of hyperalgesia within the first 2 hours [4] | inhibition at 0.3 µM [1, 7] [%] | inhibition at 0.3 µM [1, 8] [%] | IC50 [1, 9] [nM] | IC50 [1, 10] [nM] | duration of effect on CFA-induced tactile allodynia, post-treatment [3] | effect on rectal body temperature [5]
1 | O=C1COc2c(cccc2NC(=O)NCc2ccc(Cl)cc2)N1 [Example 49, 1-(4-chlorobenzyl)-3-(3,4-dihydro-3-oxo-2H-benzo[b][1,4]oxazin-8-yl)urea] | 68 | 52 | 72 | relevant and long lasting anti-hyperalgesic activity | at least 80% | – | – | – | – | – | –
2 | O=C1COc2c(cccc2NC(=O)NCc2ccc(Cl)cc2N2CCCC2)N1 [Example 51, 1-(4-chloro-2-(pyrrolidin-1-yl)benzyl)-3-(3,4-dihydro-3-oxo-2H-benzo[b][1,4]oxazin-8-yl)urea] | 100 | 30 | 61 | – | – | ~100 | > 80 | 0.1 | 1.8 | shorter duration | –
3 | CN(C)c1cc(C(F)(F)F)ccc1CNC(=O)Nc1cccc2c1OCC(=O)N2 [Example 46, 1-(2-(dimethylamino)-4-(trifluoromethyl)benzyl)-3-(3,4-dihydro-3-oxo-2H-benzo[b][1,4]oxazin-8-yl)urea] | 94 | 50 | – | relevant and long lasting anti-hyperalgesic activity | at least 80% | ~100 | > 80 | 3 | 3 | – | +0.8 °C
4 | O=C(NCc1ccc(C(F)(F)F)cc1N1CCCCC1)Nc1cccc2oc(=O)[nH]c12 [Example 31, 1-(4-(trifluoromethyl)-2-(piperidin-1-yl)benzyl)-3-(2,3-dihydro-2-oxobenzo[d]oxazol-4-yl)urea] | 100 | 47 | – | relevant and long lasting anti-hyperalgesic activity | at least 80% | ~100 | > 80 | 1.9 | 1.9 | – | −1.5 °C
5 | O=C(NCc1ccc(C(F)(F)F)cc1N1CCCC1)Nc1cccc2[nH]c(=O)[nH]c12 [Example 5, 1-(4-(trifluoromethyl)-2-(pyrrolidin-1-yl)benzyl)-3-(2,3-dihydro-2-oxo-1H-benzo[d]imidazol-4-yl)urea] | 100 | 53 | 60 | relevant and long lasting anti-hyperalgesic activity | at least 80% | ~100 | > 80 | 1 | 1 | up to 240 min | –
6 | O=C(NCc1ccc(Cl)cc1N1CCCC1)Nc1cccc2[nH]c(=O)[nH]c12 [Example 12, 1-(4-chloro-2-(pyrrolidin-1-yl)benzyl)-3-(2,3-dihydro-2-oxo-1H-benzo[d]imidazol-4-yl)urea] | 88 | 65 | 62 | – | – | – | > 80 | 6 | 6 | up to 300 min | –
